Laboratory results: patent US5215889A, “Catalytic and reactive polypeptides and methods for their preparation and use” (The Regents of the University of California, priority 1989, dated 1993)

Key:
Assay in all cases: Hydrolysis of DNP coumarin esters 1-3 by Fv
Assay type in all cases: biochemical, murine
[1] = target: T1, MOPC315 Fv variant Fv(Y34HL), Tyr 34L to His (Mus musculus, UniProt P01729+P01822, Y53H); conditions: pH 6.8; SE (n = 3)
T1 construct: Antibody-derived VH was prepared by denaturing ion exchange chromatography of authentic MOPC315 Fv, obtained from pepsin digestion of purified IgA; lambda cII fusion with Factor Xa site (IleGluGlyArg) (N, cleaved yes); made in house; host or cells: VL: E. coli MZ1 (cII fusion, inclusion bodies); VH: pepsin-cleaved MOPC315 IgA from mouse ascites
Description: (§1) FIG. 22 is a Lineweaver-Burke plot of initial rate data obtained for the hydrolysis of 1 as described in Example 6 of the Experimental section herein. Four μl of a 100-fold concentrated solution of substrate 1 in DMSO was added to the 400 μl of Fv (115 nM) in buffer A while monitoring 7-hydroxycoumarin fluorescence at 25° C. (excitation:355nm; emission: 457 nm). A standard of 7-hydroxycoumarin was added at the completion of each assay to assess quenching of coumarin fluorescence by DNP at high substrate concentrations. The buffer background rate was subtracted from the initial rates. Each point represents the average velocity of at least duplicate experiments. Factor X, Factor Xa, or Russell's viper venom had no hydrolytic activity towards 1.
(§2) The ability of wild type and mutant Fvs to hydrolyze esters 1-3 was assayed by measuring the rate of coumarin release fluorimetrically at pH 6.8 (Pollack et al. (1988) supra; Pollack (1989) supra). […] Under these conditions, Fv(Y34HL) turns over at least 11 times and still retains 44% of its activity. The loss of activity is likely due to the accumulation of the inhibitory reaction product 8. […] Ester 2 was a poor substrate (kcat (2)=0.015 min^-1); and the hydrolysis of 3 was not accelerated (kcat (3)<0.005 min^-1). […] The initial rate of hydrolysis of 1 by Fv(Y34HL) at pH 6.8 is approximately 45-fold faster than the reaction with either […] (Table 2). At pH 8.7, the reactivity of Fv(Y34HL) and Fv(315) both increase, but differentially (v[Fv(Y34HL ]/v[Fv(315)]=3.3, at 10 μM 1). Under these conditions Fv(Y34HL) catalytically hydrolyzes 1 while Fv(315) reacts stoichiometrically. The increased reactivity of Fv(315) at higher pH may be due to deprotonation of the tyrosine hydroxyl and subsequent transesterification to form a relatively stable phenol ester.

[2] = test system: MOPC315 Fv variant Fv(Y34FL), Tyr 34L to Phe; conditions: pH 6.8
Description: as §1, §2

[3] = target: T2, MOPC315 Fv, wild type, Fv(315) (Mus musculus, UniProt P01729+P01822); conditions: pH 6.8
T2 construct: The Fv fragment (26 kD) is a heterodimer consisting of two peptides, VH (14 kD) and VL (12 kD); made in house; host or cells: MOPC315 myeloma ascites (Balb/c mice), IgA cleaved with pepsin
Description: as §1, §2

T1 sequence (P01729 with tags, fused parts or gaps Y53H): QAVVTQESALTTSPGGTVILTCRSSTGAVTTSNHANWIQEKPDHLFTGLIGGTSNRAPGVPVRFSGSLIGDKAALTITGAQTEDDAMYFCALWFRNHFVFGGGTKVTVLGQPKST
T1 sequence (P01822 19-137): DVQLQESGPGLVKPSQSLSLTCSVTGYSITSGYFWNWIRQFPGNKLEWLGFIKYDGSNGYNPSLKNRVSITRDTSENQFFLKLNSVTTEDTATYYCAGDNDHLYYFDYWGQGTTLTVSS
T2 sequence (P01822 19-137): as above
T2 sequence (P01729 20-129): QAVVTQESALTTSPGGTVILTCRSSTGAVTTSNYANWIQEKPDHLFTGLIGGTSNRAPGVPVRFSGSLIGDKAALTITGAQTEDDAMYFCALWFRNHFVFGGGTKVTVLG

O=C(CCCCNc1ccc([N+](=O)[O-])cc1[N+](=O)[O-])Oc1ccc2ccc(=O)oc2c1 [compound 1, 7-hydroxycoumarin ester of 5-(2,4-dinitrophenyl)-aminopentanoic acid]
kcat (Table 2, Fv(Y34HL)) [1]: 0.18 ± .03 min | kcat (Table 2, Fv(Y34FL)) [2]: 0.004 min | kcat (Table 2, Fv(315)) [3]: 0.004 min
